The values below come from patent US8461328B2, “Tricyclic heterocyclic compounds, compositions and methods of use thereof” (Genentech, Inc., priority 2010, dated 2013).

Format in all cases: biochemical
One experiment has as its target T1, JAK1 (Homo sapiens, UniProt P23458).
T1 construct: made in house; host or cells: SF9 insect cells (baculovirus)
Kind of experiment: JAK1 inhibition (Table 4). Particulars: read-out: JAK1 Ki.

The target of the next experiment is T2, TYK2 (Homo sapiens, UniProt P29597).
T2 construct: made in house; host or cells: SF9 insect cells (baculovirus)
T2 sequence (P29597 873-1187): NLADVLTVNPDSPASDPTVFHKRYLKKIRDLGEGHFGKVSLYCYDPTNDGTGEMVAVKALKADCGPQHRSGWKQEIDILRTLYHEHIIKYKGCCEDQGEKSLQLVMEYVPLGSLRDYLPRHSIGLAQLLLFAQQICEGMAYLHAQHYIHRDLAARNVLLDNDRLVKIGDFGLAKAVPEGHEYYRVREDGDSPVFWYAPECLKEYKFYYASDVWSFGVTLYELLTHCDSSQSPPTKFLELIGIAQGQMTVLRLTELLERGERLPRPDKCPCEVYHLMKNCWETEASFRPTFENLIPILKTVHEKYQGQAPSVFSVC
The experiment is described as follows: TYK2 inhibition (Table 4).

Another experiment has as its target T3, JAK2 (Homo sapiens, UniProt O60674).
T3 construct: made in house; host or cells: SF9 insect cells (baculovirus)
The experiment is described as follows: JAK2 inhibition (Table 4). As to conditions: read-out: JAK2 Ki.

In another experiment the target is T4, JAK3 (Homo sapiens, UniProt P52333).
T4 construct: made in house; host or cells: SF9 insect cells (baculovirus)
The experiment is described as follows: JAK3 inhibition (Table 4). As to conditions: read-out: JAK3 Ki.

Structures are written as SMILES.

T4 sequence (P52333 783-1124): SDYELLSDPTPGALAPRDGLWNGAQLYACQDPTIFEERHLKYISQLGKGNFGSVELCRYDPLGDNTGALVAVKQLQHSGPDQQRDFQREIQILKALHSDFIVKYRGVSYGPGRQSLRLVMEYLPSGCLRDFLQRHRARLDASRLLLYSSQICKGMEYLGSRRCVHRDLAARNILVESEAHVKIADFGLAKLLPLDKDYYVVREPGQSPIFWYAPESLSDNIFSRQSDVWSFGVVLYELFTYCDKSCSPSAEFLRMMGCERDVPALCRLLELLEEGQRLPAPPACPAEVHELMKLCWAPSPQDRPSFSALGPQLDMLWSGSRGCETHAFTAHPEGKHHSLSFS
T3 sequence (O60674 812-1132): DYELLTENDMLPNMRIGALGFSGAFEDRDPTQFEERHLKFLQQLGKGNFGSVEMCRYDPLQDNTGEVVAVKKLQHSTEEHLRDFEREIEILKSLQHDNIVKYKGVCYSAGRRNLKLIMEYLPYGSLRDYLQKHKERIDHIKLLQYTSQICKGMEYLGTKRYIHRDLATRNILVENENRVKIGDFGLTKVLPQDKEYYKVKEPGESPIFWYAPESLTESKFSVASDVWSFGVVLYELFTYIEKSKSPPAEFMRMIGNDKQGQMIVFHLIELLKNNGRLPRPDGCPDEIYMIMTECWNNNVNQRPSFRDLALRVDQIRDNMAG
T1 sequence (P23458 852-1154): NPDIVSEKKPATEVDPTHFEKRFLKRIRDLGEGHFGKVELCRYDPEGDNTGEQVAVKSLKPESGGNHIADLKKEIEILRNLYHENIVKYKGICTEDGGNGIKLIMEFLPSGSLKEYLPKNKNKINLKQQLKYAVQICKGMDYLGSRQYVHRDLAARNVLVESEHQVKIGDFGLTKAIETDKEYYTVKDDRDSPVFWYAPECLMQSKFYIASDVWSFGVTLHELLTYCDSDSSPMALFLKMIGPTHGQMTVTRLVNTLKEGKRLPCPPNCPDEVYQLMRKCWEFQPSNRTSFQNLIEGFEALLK

With `Cc1nc2cnc3[nH]ccc3c2n1C1CCc2[nH]ncc2C1` (racemic) [Example 486, 2-Methyl-1-(4,5,6,7-tetrahydro-1H-indazol-5-yl)-1,6-dihydro-1,3,5,6-tetraaza-as-indacene], the inhibitory constant (Ki) at JAK1 came to 3.45 nM; at TYK2, 21.9 nM; at JAK2, 6.24 nM; at JAK3, 10.1 nM.
The matching figures for `c1cncc(CN2CCCC(n3cnc4cnc5[nH]ccc5c43)CC2)c1` (racemic) [Example 487, 1-(1-Pyridin-3-ylmethyl-azepan-4-yl)-1,6-dihydro-1,3,5,6-tetraaza-as-indacene]: 16.5 nM, 234 nM, 30.8 nM and 37.1 nM.
On to `Cc1nc2cnc3[nH]ccc3c2n1C1CCc2cn[nH]c2C1` (racemic) [Example 488], for which the Ki turned out to be 31.9 nM at JAK1, 188 nM at TYK2, 37.1 nM at JAK2 and 87 nM on JAK3.
The matching figures for `c1cc2c(ncc3ncn(C4CCCNCC4)c32)[nH]1` (racemic) [Example 489, 1-Azepan-4-yl-1,6-dihydro-1,3,5,6-tetraaza-as-indacene]: 34 nM, 596 nM, 315 nM and 322 nM.
Consider `c1cc2c(ncc3ncn(CC4CCNC4)c32)[nH]1` (racemic) [Example 490, 1-Pyrrolidin-3-ylmethyl-1,6-dihydro-1,3,5,6-tetraaza-as-indacene], for which the Ki was 391 nM on JAK1, 3430 nM on TYK2, 1110 nM on JAK2 and 1870 nM at JAK3.
On to `CCC(C)S(=O)(=O)NCc1nc2cnc3[nH]ccc3c2n1C1CCN(CCC#N)CC1` (racemic) [Example 502, Butane-2-sulfonic acid {1-[1-(2-cyano-ethyl)-piperidin-4-yl]-1,6-dihydro-1,3,5,6-tetraaza-as-indacen-2-ylmethyl}-amide], for which the Ki on JAK1 was 15.2 nM; on TYK2 it was 417 nM; on JAK2, 90.6 nM; on JAK3, 105 nM.
Consider `CC(CC#N)N1CCC(n2c(CNS(C)(=O)=O)nc3cnc4[nH]ccc4c32)CC1` (racemic) [Example 507, N-{1-[1-(2-Cyano-1-methyl-ethyl)-piperidin-4-yl]-1,6-dihydro-1,3,5,6-tetraaza-as-indacen-2-ylmethyl}-methanesulfonamide], for which the Ki amounted to 11.1 nM on JAK1, 102 nM at TYK2, 40.2 nM on JAK2 and 69.4 nM at JAK3.
Consider `O=C(NCCc1nc2cnc3[nH]ccc3c2n1C1CCCCC1)C1CC1(F)F` (racemic) [Example 515, 2,2-Difluoro-cyclopropanecarboxylic acid [2-(1-cyclohexyl-1,6-dihydro-1,3,5,6-tetraaza-as-indacen-2-yl)-ethyl]-amide], for which the Ki turned out to be 2.41 nM at JAK1, 25.2 nM on TYK2, 43.5 nM at JAK2 and 120 nM at JAK3.
For `N#CCCN1CCC(n2c(CCC3CCCO3)nc3cnc4[nH]ccc4c32)CC1` (racemic) [Example 517, 3-(4-{2-[2-(Tetrahydro-furan-2-yl)-ethyl]-6H-1,3,5,6-tetraaza-as-indacen-1-yl}-piperidin-1-yl)-propionitrile], the Ki at JAK1 stood at 10.3 nM; at TYK2, 294 nM; at JAK2 it was 57.5 nM; on JAK3, 52.6 nM.
For `FC1CNCCC1n1nnc2cnc3[nH]ccc3c21` (racemic) [Example 518, 1-(3-Fluoro-piperidin-4-yl)-1,6-dihydro-1,2,3,5,6-pentaaza-as-indacene], the Ki was 227 nM at JAK1, 1990 nM at TYK2, 854 nM at JAK2 and 1450 nM on JAK3.
`N#CCC(=O)N1CCC(F)C(n2nnc3cnc4[nH]ccc4c32)C1` (racemic) [Example 519, 3-[4-Fluoro-3-(6H-1,2,3,5,6-pentaaza-as-indacen-1-yl)-piperidin-1-yl]-3-oxo-propionitrile]: the Ki was found to be 1.74 nM on JAK1, 24.5 nM at TYK2, 4.92 nM at JAK2 and 33 nM on JAK3.
Take `FC1CNCCC1n1cnc2cnc3[nH]ccc3c21` (racemic) [Example 520, 1-(3-Fluoro-piperidin-4-yl)-1,6-dihydro-1,3,5,6-tetraaza-as-indacene]: the inhibition constant (Ki) at JAK1 was 38.2 nM; at TYK2 it was 261 nM; on JAK2, 128 nM; at JAK3, 412 nM.
Consider `FC1CNCCC1n1nnc2cnc3[nH]ccc3c21` (racemic) [Example 525, 1-(3-Fluoro-piperidin-4-yl)-l,6-dihydro-1,2,3,5,6-pentaaza-as-indacene], for which the Ki at JAK1 turned out to be 12.3 nM; on TYK2, 96.8 nM; at JAK2 it was 33.2 nM; at JAK3, 87.6 nM.
In the case of `CC(O)c1nc2cnc3[nH]ccc3c2n1C1CCN(S(C)(=O)=O)CC1` (racemic) [Example 527, 1-[1-(1-Methanesulfonyl-piperidin-4-yl)-1,6-dihydro-1,3,5,6-tetraaza-as-indacen-2-yl]-ethanol], the inhibition constant (Ki) at JAK1 was 107 nM; at TYK2 it was 65.2 nM; at JAK2, 200 nM; at JAK3, 189 nM.
Turning to `CC(O)c1nc2cnc3[nH]ccc3c2n1C1CCN(C(=O)N(C)C)CC1` (racemic) [Example 528, 4-[2-(1-Hydroxy-ethyl)-6H-1,3,5,6-tetraaza-as-indacen-1-yl]-piperidine-1-carboxylic acid dimethylamide], the inhibition constant Ki on JAK1 came out at 156 nM; on TYK2 it was 1410 nM; at JAK2 it was 396 nM; at JAK3, 187 nM.
For the compound `CC(O)c1nc2cnc3[nH]ccc3c2n1C1CCN(CC(=O)N2CCCCC2)CC1` (racemic) [Example 529, 2-{4-[2-(1-Hydroxy-ethyl)-6H-1,3,5,6-tetraaza-as-indacen-1-yl]-piperidin-1-yl}-1-piperidin-1-yl-ethanone], the inhibition constant Ki at JAK1 was determined as 19.6 nM; on TYK2 it was 2170 nM; at JAK2, 284 nM; on JAK3 it was 561 nM.
In the case of `CCN1CCC(n2c(C)nc3cnc4[nH]ccc4c32)C(F)(F)C1` (racemic) [Example 531, 1-(1-Ethyl-3,3-difluoro-piperidin-4-yl)-2-methyl-1,6-dihydro-1,3,5,6-tetraaza-as-indacene], the Ki at JAK1 was determined as 1.77 nM; on TYK2, 21.2 nM; on JAK2, 4.58 nM; at JAK3, 4.23 nM.
Take `CCN1CCC(n2cnc3cnc4[nH]ccc4c32)C(F)(F)C1` (racemic) [Example 532, 1-(1-Ethyl-3,3-difluoro-piperidin-4-yl)-1,6-dihydro-1,3,5,6-tetraaza-as-indacene]: the inhibition constant (Ki) at JAK1 amounted to 2.86 nM; on TYK2 it was 23.8 nM; at JAK2, 6 nM; at JAK3, 30.4 nM.
The matching figures for `CCN1CCC(n2nnc3cnc4[nH]ccc4c32)C(F)(F)C1` (racemic) [Example 533, 1-(1-Ethyl-3,3-difluoro-piperidin-4-yl)-1,6-dihydro-1,2,3,5,6-pentaaza-as-indacene]: 9.05 nM, 59.7 nM, 15.7 nM and 48.8 nM.
Consider `COC1CN(C)CCC1n1c(C)nc2cnc3[nH]ccc3c21` (racemic) [Example 534, 1-(3-Methoxy-1-methyl-piperidin-4-yl)-2-methyl-1,6-dihydro-1,3,5,6-tetraaza-as-indacene], for which the inhibition constant (Ki) at JAK1 was found to be 9.86 nM; on TYK2, 150 nM; at JAK2, 24.4 nM; at JAK3, 88.9 nM.
As to `COC1CNCCC1n1c(C)nc2cnc3[nH]ccc3c21` (racemic) [Example 535, 1-(3-Methoxy-piperidin-4-yl)-2-methyl-1,6-dihydro-1,3,5,6-tetraaza-as-indacene], the inhibition constant Ki on JAK1 is 12 nM; at TYK2, 88.2 nM; at JAK2, 44.9 nM; at JAK3, 225 nM.
Regarding `COC1CNCCC1n1nnc2cnc3[nH]ccc3c21` (racemic) [Example 536, 1-(3-Methoxy-piperidin-4-yl)-1,6-dihydro-1,2,3,5,6-pentaaza-as-indacene], the inhibition constant Ki at JAK1 was determined as 32.5 nM; at TYK2, 235 nM; at JAK2, 61.2 nM; at JAK3, 1020 nM.
Take `COC1CNCCC1n1cnc2cnc3[nH]ccc3c21` (racemic) [Example 537, 1-(3-Methoxy-piperidin-4-yl)-1,6-dihydro-1,3,5,6-tetraaza-as-indacene]: the inhibition constant Ki at JAK1 came out at 25.2 nM; at TYK2, 122 nM; on JAK2, 33.8 nM; on JAK3 it was 322 nM.
For the compound `COC1CN(CCC#N)CCC1n1c(C)nc2cnc3[nH]ccc3c21` (racemic) [Example 538, 3-[3-Methoxy-4-(2-methyl-6H-1,3,5,6-tetraaza-as-indacen-1-yl)-piperidin-1-yl]-propionitrile], the inhibitory constant (Ki) at JAK1 is 0.86 nM; on TYK2, 8.66 nM; at JAK2 it was 0.89 nM; on JAK3, 4.01 nM.
Regarding `COCCN1CCC(n2c(C(C)O)nc3cnc4[nH]ccc4c32)CC1` (racemic) [Example 539, 1-{1-[1-(2-Methoxy-ethyl)-piperidin-4-yl]-1,6-dihydro-1,3,5,6-tetraaza-as-indacen-2-yl}-ethanol], the inhibition constant Ki at JAK1 worked out at 12.7 nM; on TYK2 it was 352 nM; at JAK2, 194 nM; at JAK3 it was 97.4 nM.

Usually Ki stands for a dissociation constant, usually derived from enzyme kinetics or from competition with a known ligand.
